Values after ≈ are worked out from the molar mass of the structure shown.
Experiments:
CMV AD-169 strain = assay: Plaque reduction assay in HEL cells, CMV AD-169 strain; type: cell-based, human cytomegalovirus; conditions: human embryonic lung fibroblast (HEL) cells; for IC50: Human betaherpesvirus 5, AD169, HEL, 168 h, plaques counted on day 7, read-out: IC50 CMV AD-169 Strain (inhibitory concentration required to reduce virus plaque formation by 50%); for IC50 CMV AD-169 Strain (inhibitory concentration required to reduce virus plaque formation by 50%): plaques counted on day 7
Protocol: (§1) The compounds were screened against various pathogenic viruses and more specific the human cytomegalovirus (CMV). […] After 2 hours of incubation at 37° C., the infected cells were replenished with 0.1 ml of medium containing serial dilutions of the test compound. On day 7 the plaques were counted microscopically after staining the cells with Giemsa's solution. The minimum antiviral concentration was expressed as the dose required to inhibit virus-induced plaque formation by 50%.

CMV Davis strain = assay: Plaque reduction assay in HEL cells, CMV Davis strain; type: cell-based, human cytomegalovirus; conditions: human embryonic lung fibroblast (HEL) cells; for IC50: Human betaherpesvirus 5, HEL, 168 h, plaques counted on day 7, read-out: IC50 CMV David Strain (inhibitory concentration required to reduce virus plaque formation by 50%)
Protocol: as §1

[1] = intravenous ganciclovir; people; cited from earlier work

Row | melting point [°C] | Compound | IC50 (CMV AD-169 strain) [µg/mL] | IC50 (CMV Davis strain) [µg/mL] | IC50 CMV AD-169 Strain (inhibitory concentration required to reduce virus plaque formation by 50%) (CMV AD-169 strain) [µg/mL] | IC50 CMV David Strain (inhibitory concentration required to reduce virus plaque formation by 50%) (CMV Davis strain; plaques counted on day 7) [µg/mL] | IV recipients who have to stop treatment because of side effects [1]
1 | 97 to 98 | CO[C@@H]1[C@@H](OC)[C@H](c2ccccc2)O[C@@H]2CO[C@@H](c3ccccc3)O[C@@H]12 [Compound A1] | 2.7 (≈ 7.58 µM) | 2 (≈ 5.61 µM) | – | – | –
2 | – | CO[C@@H]1[C@@H](OC)[C@H](Cc2ccccc2)O[C@@H]2CO[C@@H](c3ccccc3)O[C@@H]12 [Compound A2] | 5 (≈ 13.5 µM) | 20 (≈ 54 µM) | – | – | –
3 | 87 to 89 | CCO[C@@H]1[C@@H](OCC)[C@H](Cc2ccccc2)O[C@@H]2CO[C@@H](c3ccccc3)O[C@@H]12 [Compound A3] | 2.5 (≈ 6.27 µM) | 3.2 (≈ 8.03 µM) | 2.7 (≈ 6.78 µM) | 2.8 (≈ 7.03 µM) | –
4 | 81 to 83 | C#CCO[C@@H]1[C@@H](OCC#C)[C@H](Cc2ccccc2)O[C@@H]2CO[C@@H](c3ccccc3)O[C@@H]12 [Compound A5] | 0.5 (≈ 1.19 µM) | 0.5 (≈ 1.19 µM) | – | – | –
5 | 135 | CO[C@@H]1[C@@H](OC)[C@H](c2ccccc2)O[C@@H]2CO[C@@H](c3ccc4ccccc4c3)O[C@@H]12 [Compound A6] | 0.47 (≈ 1.16 µM) | 0.8 (≈ 1.97 µM) | – | – | –
6 | 111 to 112 | CO[C@@H]1[C@@H](OC)[C@H](c2ccccc2)O[C@@H]2CO[C@@H](c3ccc(-c4ccccc4)cc3)O[C@@H]12 [Compound A7] | 0.8 (≈ 1.85 µM) | 0.6 (≈ 1.39 µM) | – | – | –
7 | – | Nc1nc(O)c2ncn(COC(CO)CO)c2n1 [Ganciclovir, reference compound] | 1.3 (≈ 5.09 µM) | 0.5 (≈ 1.96 µM) | 2.5 (≈ 9.79 µM) | – | More than 10%
